Literature values, collected in patent US20190167706A1, “Solid Pharmaceutical Composition Comprising Amorphous Sofosbuvir” (Sandoz AG, priority 2016, published 2019).

Row | Structure (SMILES) | relative humidity at which the substance deliquesces (amorphous form, compared to crystalline forms) | moisture stability: deliquescence under stress conditions (40° C. and a relative humidity (RH) of 75%)
1 | CC(C)OC(=O)[C@H](C)N[P@](=O)(OC[C@H]1O[C@@H](n2ccc(=O)[nH]c2=O)[C@](C)(F)[C@@H]1O)Oc1ccccc1 [Amorphous sofosbuvir, (S)-isopropyl 2-(((S)-(((2R,3R,4R,5R)-5-(2,4-dioxo-3,4-dihydropyrimidin-1(2H)-yl)-4-fluoro-3-hydroxy-4-methyltetrahydrofuran-2-yl)methoxy)(phenoxy)phosphoryl)amino)propanoate] | above 50% | 
2 | CC(C)OC(=O)[C@H](C)N[P@](=O)(OC[C@H]1O[C@@H](n2ccc(=O)[nH]c2=O)[C@](C)(F)[C@@H]1O)Oc1ccccc1 [sofosbuvir, (S)-isopropyl 2-(((S)-(((2R,3R,4R,5R)-5-(2,4-dioxo-3,4-dihydropyrimidin-1(2H)-yl)-4-fluoro-3-hydroxy-4-methyltetrahydrofuran-2-yl)methoxy)(phenoxy)phosphoryl)amino)propanoate] |  | deliquesces after a few hours
